US6737383B1, “Herbicidal oxadiazolidines” (priority 1999, dated 2004)

Experiments:
bedstraw = experiment: Test B pre/postemergence bedstraw; assay type: in vivo, Galium aparine
In short: (§1)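 Test chemicals in a non-phytotoxic solvent mixture with surfactant were sprayed preemergence onto planted seeds and postemergence onto plants 2 to 18 cm tall (1- to 4-leaf stage). After twelve to sixteen days in a greenhouse, injury was visually rated against untreated controls from 0 (no effect) to 10 (complete control).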

wild oat = experiment: Test B pre/postemergence wild oat; assay type: in vivo, Avena fatua
In short: as §1

pigweed = experiment: Test B pre/postemergence pigweed; assay type: in vivo, Amaranthus retroflexus
In short: as §1

surinam grass = experiment: Test B pre/postemergence surinam grass; assay type: in vivo, Brachiaria decumbens
In short: as §1

blackgrass = experiment: Test B pre/postemergence blackgrass; assay type: in vivo, Alopecurus myosuroides
In short: as §1

sugar beet = experiment: Test B pre/postemergence sugar beet; assay type: in vivo, Beta vulgaris
In short: as §1

cocklebur = experiment: Test B pre/postemergence cocklebur; assay type: in vivo, Xanthium strumarium
In short: as §1

crabgrass = experiment: Test B pre/postemergence crabgrass; assay type: in vivo, Digitaria sanguinalis
In short: as §1

corn = experiment: Test B pre/postemergence corn; assay type: in vivo, Zea mays
In short: as §1

duck salad = experiment: Test B flood test duck salad; assay type: in vivo, Heteranthera limosa
In short: (§2)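 Each value is a visual injury score relative to controls, with 10 meaning complete control and 0 no effect. Evaluation took place twelve to sixteen days after the 2-leaf-stage plants were treated and kept in the greenhouse.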

purple nutsedge = experiment: Test B pre/postemergence purple nutsedge; assay type: in vivo, Cyperus rotundus
In short: as §1

morningglory = experiment: Test B pre/postemergence morningglory; assay type: in vivo, Ipomoea hederacea
In short: as §1

smallflower flatsedge = experiment: Test B flood test smallflower flatsedge; assay type: in vivo, Cyperus difformis
In short: as §2

wheat = experiment: Test B pre/postemergence wheat; assay type: in vivo, Triticum aestivum
In short: as §1

rape = experiment: Test B pre/postemergence rape; assay type: in vivo, Brassica napus
In short: as §1

velvetleaf = experiment: Test B pre/postemergence velvetleaf; assay type: in vivo, Abutilon theophrasti
In short: as §1

[1] = Postemergence, Rate 125 g/ha, scale of 0 to 10 where 0 is no effect and 10 is complete control
[2] = Preemergence, Rate 62 g/ha, scale 0 to 10 (0 no effect, 10 complete control)
[3] = Preemergence, Rate 125 g/ha, 0 is no effect, 10 is complete control
[4] = Preemergence, Rate 250 g/ha, scale 0 to 10, 0 is no effect, 10 is complete control
[5] = Preemergence, Rate 500 g/ha, scale 0 to 10 (0 no effect, 10 complete control)
[6] = Rate 62 g/ha, Postemergence, scale of 0 to 10 where 0 is no effect and 10 is complete control
[7] = Rate 250 g/ha, Postemergence, scale 0 to 10, 0 is no effect, 10 is complete control
[8] = Rate 500 g/ha, Postemergence, scale 0 to 10
[9] = Postemergence (flood test species), Rate 125 g/ha, scale of 0 to 10 where 0 is no effect and 10 is complete control
[10] = Rate 62 g/ha, Postemergence section, flood test species, scale of 0 to 10 where 0 is no effect and 10 is complete control
[11] = Rate 250 g/ha, Postemergence (flood test), scale 0 to 10, 0 is no effect, 10 is complete control
[12] = Rate 500 g/ha, listed under Postemergence (flood test species), scale 0 to 10

CN(C(=O)n1oc(=O)n(Cc2ccccc2)c1=O)c1ccccc1 [Compound 153]
0: Bedstraw plant response rating (bedstraw; [1]) | Bedstraw plant response rating (bedstraw; [2]) | Bedstraw plant response rating (0 to 10 scale) (bedstraw; [3]) | Bedstraw plant response rating (bedstraw; [4]) | Bedstraw plant response rating (bedstraw; [5]) | Bedstraw plant response rating (bedstraw; [6]) | Plant response rating, Bedstraw (bedstraw; [7]) | Bedstraw plant response rating (bedstraw; Rate 500 g/ha, Postemergence, scale 0 to 10, 0 no effect, 10 complete control) | Wild oats plant response rating (wild oat; [2]) | Wild oats plant response rating (0 to 10 scale) (wild oat; [3]) | Wild oats plant response rating (wild oat; [4]) | Wild oats plant response rating (wild oat; [5]) | Wild oats plant response rating (wild oat; [6]) | Plant response rating, Wild oats (wild oat; [7]) | Wild oats plant response rating (wild oat; [8]) | Redroot pigweed plant response rating (pigweed; [1]) | Redroot pigweed plant response rating (pigweed; [2]) | Redroot pigweed plant response rating (0 to 10 scale) (pigweed; [3]) | Redroot pigweed plant response rating (pigweed; [4]) | Redroot pigweed plant response rating (pigweed; [5]) | Redroot pigweed plant response rating (pigweed; [6]) | Plant response rating, Redroot pigweed (pigweed; [7]) | Redroot pigweed plant response rating (pigweed; [8]) | B. signalgrass plant response rating (surinam grass; [1]) | B. signalgrass plant response rating (surinam grass; [2]) | B. signalgrass plant response rating (0 to 10 scale) (surinam grass; [3]) | B. signalgrass plant response rating (surinam grass; [4]) | B. signalgrass plant response rating (surinam grass; [5]) | B. signalgrass plant response rating (surinam grass; [6]) | Plant response rating, B. signalgrass (surinam grass; [7]) | B. signalgrass plant response rating (surinam grass; Rate 500 g/ha, Postemergence, scale of 0 to 10 where 0 is no effect and 10 is complete control) | Blackgrass plant response rating (blackgrass; [1]) | Blackgrass plant response rating (blackgrass; [2]) | Blackgrass plant response rating (0 to 10 scale) (blackgrass; [3]) | Blackgrass plant response rating (blackgrass; [4]) | Blackgrass plant response rating (blackgrass; [5]) | Blackgrass plant response rating (blackgrass; [6]) | Plant response rating, Blackgrass (blackgrass; [7]) | Blackgrass plant response rating (blackgrass; [8]) | Sugarbeets plant response rating (sugar beet; [1]) | Sugarbeets plant response rating (sugar beet; [2]) | Sugarbeets plant response rating (0 to 10 scale) (sugar beet; [3]) | Sugarbeets plant response rating (sugar beet; [4]) | Sugarbeets plant response rating (sugar beet; [5]) | Sugarbeets plant response rating (sugar beet; [6]) | Plant response rating, Sugarbeets (sugar beet; [7]) | Sugarbeets plant response rating (sugar beet; [8]) | Cocklebur plant response rating (cocklebur; [1]) | Cocklebur plant response rating (cocklebur; [2]) | Cocklebur plant response rating (0 to 10 scale) (cocklebur; [3]) | Cocklebur plant response rating (cocklebur; [4]) | Cocklebur plant response rating (cocklebur; [5]) | Cocklebur plant response rating (cocklebur; [6]) | Plant response rating, Cocklebur (cocklebur; [7]) | Cocklebur plant response rating (cocklebur; [8]) | Crabgrass plant response rating (crabgrass; [1]) | Crabgrass plant response rating (crabgrass; [2]) | Crabgrass plant response rating (0 to 10 scale) (crabgrass; [3]) | Crabgrass plant response rating (crabgrass; [4]) | Crabgrass plant response rating (crabgrass; [5]) | Crabgrass plant response rating (crabgrass; [6]) | Plant response rating, Crabgrass (crabgrass; [7]) | Crabgrass plant response rating (crabgrass; [8]) | Corn plant response rating (corn; [1]) | Corn plant response rating (corn; [2]) | Corn plant response rating (0 to 10 scale) (corn; [3]) | Corn plant response rating (corn; [4]) | Corn plant response rating (corn; [5]) | Corn plant response rating (corn; [6]) | Plant response rating, Corn (corn; [7]) | Corn plant response rating (corn; [8]) | Ducksalad plant response rating (duck salad; [9]) | Ducksalad plant response rating (duck salad; [10]) | Plant response rating, Ducksalad (duck salad; [11]) | Ducksalad plant response rating (duck salad; [12]) | Nutsedge plant response rating (purple nutsedge; [1]) | Nutsedge plant response rating (purple nutsedge; [2]) | Nutsedge plant response rating (0 to 10 scale) (purple nutsedge; [3]) | Nutsedge plant response rating (purple nutsedge; [4]) | Nutsedge plant response rating (purple nutsedge; [5]) | Nutsedge plant response rating (purple nutsedge; [6]) | Plant response rating, Nutsedge (purple nutsedge; [7]) | Nutsedge plant response rating (purple nutsedge; [8]) | Morningglory plant response rating (morningglory; [1]) | Morningglory plant response rating (morningglory; [2]) | Morningglory plant response rating (0 to 10 scale) (morningglory; [3]) | Morningglory plant response rating (morningglory; [4]) | Morningglory plant response rating (morningglory; [5]) | Morningglory plant response rating (morningglory; [6]) | Plant response rating, Morningglory (morningglory; [7]) | Morningglory plant response rating (morningglory; [8]) | S. Flatsedge plant response rating (smallflower flatsedge; [9]) | S. Flatsedge plant response rating (smallflower flatsedge; [10]) | Plant response rating, S. Flatsedge (smallflower flatsedge; [11]) | S. Flatsedge plant response rating (smallflower flatsedge; [12]) | Wheat plant response rating (wheat; [2]) | Wheat plant response rating (0 to 10 scale) (wheat; [3]) | Wheat plant response rating (wheat; [4]) | Wheat plant response rating (wheat; [5]) | Wheat plant response rating (wheat; [6]) | Plant response rating, Wheat (wheat; [7]) | Wheat plant response rating (wheat; [8]) | Rape plant response rating (rape; [1]) | Rape plant response rating (rape; [2]) | Rape plant response rating (0 to 10 scale) (rape; [3]) | Rape plant response rating (rape; [4]) | Rape plant response rating (rape; [5]) | Rape plant response rating (rape; [6]) | Plant response rating, Rape (rape; [7]) | Rape plant response rating (rape; [8]) | Velvetleaf plant response rating (velvetleaf; [2]) | Velvetleaf plant response rating (0 to 10 scale) (velvetleaf; [3]) | Velvetleaf plant response rating (velvetleaf; [4]) | Velvetleaf plant response rating (velvetleaf; [5]) | Velvetleaf plant response rating (velvetleaf; [6]) | Plant response rating, Velvetleaf (velvetleaf; [7]) | Velvetleaf plant response rating (velvetleaf; [8])
